{"source": "patent US11235976B2", "about": "“Nanocarbon-iron composite system as well as composition, preparation method and use thereof” (Chongqing Lummy Pharmaceutical Co., LTD, priority 2017, dated 2022)", "key": {"[1]": {"test_system": "SGC-7901 stomach cancer cells", "experiment": "Cell experiment, cell survival rate", "assay_type": "cell-based", "settings": "iron preparation alone 13.65 μg/mL, 48 h", "experimental": "(§1) Cells growing in a log phase are collected, the concentration of the cell suspension is adjusted, 100 μL of cell suspension is added to each well and the cells are plated (edge wells are filled with sterile PBS) at a density of 1×10^3-10^4 cells/well. The cells are incubated for 24 hours at 37° C. under the condition of 5% CO2, a nanocarbon-iron solution having a concentration gradient (nanocarbon content: 125, 62.5, 15.63 and 3.91 μg/mL; and ferric ion content: 13.65, 6.83, 1.71 and 0.43 μg/mL) is added, and three sub-wells are set. Then the cells are incubated for 48 hours at 37° C. under the condition of 5% CO2. 10 μL of CCK8 solution is added to each well and then the cells are continuously incubated for 2 hours. The absorbance of each well is measured at OD=450 nm with the microplate reader. In addition, a negative control group, nanocarbon control groups having the same concentration and iron preparation control groups having the same concentration are set.\nas §1, with “and 1” for “100”, “of a 6-well plate” for “and the cells are plated (edge wells are filled with sterile PBS)”, “3×10^4” for “1×10^3-10^4”, “1.71,” for “1.71 and”, “The” for “10 μL of CCK8 solution is added to each well and then the”, “trypsinized and counted.” for “continuously incubated for 2 hours. The absorbance of each well is measured at OD=450 nm with the microplate reader.”"}, "[2]": {"test_system": "murine liver cancer H22 cells", "experiment": "Cell experiment, cell survival rate", "assay_type": "cell-based", "settings": "48 h", "experimental": "as §1\nas §1, with “and 1” for “100”, “of a 6-well plate” for “and the cells are plated (edge wells are filled with sterile PBS)”, “3×10^4” for “1×10^3-10^4”, “1.71,” for “1.71 and”, “The” for “10 μL of CCK8 solution is added to each well and then the”, “trypsinized and counted.” for “continuously incubated for 2 hours. The absorbance of each well is measured at OD=450 nm with the microplate reader.”"}, "[3]": {"test_system": "SMMC7721 liver cancer cells", "experiment": "Cell experiment, cell survival rate", "assay_type": "cell-based", "settings": "SMMC-7721, 48 h", "experimental": "as §1\nas §1, with “and 1” for “100”, “of a 6-well plate” for “and the cells are plated (edge wells are filled with sterile PBS)”, “3×10^4” for “1×10^3-10^4”, “1.71,” for “1.71 and”, “The” for “10 μL of CCK8 solution is added to each well and then the”, “trypsinized and counted.” for “continuously incubated for 2 hours. The absorbance of each well is measured at OD=450 nm with the microplate reader.”"}, "[4]": {"test_system": "TPC-1 thyroid cancer cells", "experiment": "Cell experiment, cell survival rate", "assay_type": "cell-based", "settings": "48 h", "experimental": "as §1\nas §1, with “and 1” for “100”, “of a 6-well plate” for “and the cells are plated (edge wells are filled with sterile PBS)”, “3×10^4” for “1×10^3-10^4”, “1.71,” for “1.71 and”, “The” for “10 μL of CCK8 solution is added to each well and then the”, “trypsinized and counted.” for “continuously incubated for 2 hours. The absorbance of each well is measured at OD=450 nm with the microplate reader.”"}, "[5]": {"test_system": "H22 metastatic lymph nodes", "experiment": "Lymph node metastasis inhibition experiment", "assay_type": "in vivo, Kunming mouse", "settings": "popliteal lymph nodes", "experimental": "(§2) Milky white and thick ascites is extracted from the H22 tumor-bearing mice, the concentration is adjusted to be 3×10^7 cells/mL, 0.05 mL of cell suspension (about 1.5×10^6 cells) is inoculated subcutaneously into the left hind foot pads of each Kunming mouse, and thus a lymph node metastasis mouse model is obtained. The mice are treated when the diameter of the tumor reaches 6-8 mm and there is no ulcer and necrosis. The mice are randomly divided into four groups (10 mice per group): a negative control group (0.9% sodium chloride injection), a nanocarbon control group, an iron preparation control group and a nanocarbon-iron suspension experimental group. 10 days after inoculation, the mice are killed, and popliteal lymph nodes are collected, weighed and fixed for pathological examination."}, "[6]": {"test_system": "lymph node metastasis of 9 types of tumor cells", "experiment": "Lymph node metastasis inhibition experiment, summary", "assay_type": "in vivo, mice", "experimental": "as §2, with “Cells growing in a log phase are collected,” for “Milky white and thick ascites is extracted from the H22 tumor-bearing mice,”, “concentration of the cell suspension” for “concentration”, “to” for “to be”, “the” for “0.05 mL of”, “suspension” for “suspension (about 1.5×10^6 cells)”, “nude mouse at the inoculation volume of 0.05 mL (about 1.5×10^6 cells)” for “Kunming mouse,”\nas §2"}, "[7]": {"test_system": "subcutaneous transplantation tumors of 9 types of cancer cells", "experiment": "Tumor growth inhibition experiments, subcutaneous transplantation tumors", "assay_type": "in vivo, mice", "settings": "FIGS. 4-39", "experimental": "Cells growing in a log phase are collected, the concentration of the cell suspension is adjusted to 3×10^7 cells/mL, and the cell suspension is inoculated subcutaneously into the right upper extremities of nude mice at the inoculation dosage of 0.1 mL (about 3×10^6 cells) per mouse. When the average tumor volume of the inoculated mice reaches 100 mm^3, the tumor-bearing mice are randomly divided into the following groups (8 nude mice per group): a negative control group (0.9% sodium chloride injection), a nanocarbon control group, an iron preparation control group, a nanocarbon-iron suspension experimental group, and a cis-platinum control group (intraperitoneal injection at the dosage of 5 mg/kg). The above various drugs are injected into the tumors. The tumor volume changes are recorded, and the formula for calculating the volume is Volume=(length×the square of width)/2.\nMilky white and thick ascites is extracted from the H22 tumor-bearing mice, the concentration of the cell suspension is adjusted to be 3×10^7 cells/mL, 0.1 mL of cell suspension (about 3×10^6 cells) is inoculated subcutaneously into the right upper extremity of each of Kunming mice. When the average tumor volume of the inoculated mice reaches 100 mm^3, the tumor-bearing mice are randomly divided into the following groups (8 mice per group): a negative control group (0.9% sodium chloride injection), a nanocarbon control group, an iron preparation control group, a nanocarbon-iron suspension experimental group, and a cis-platinum control group (intraperitoneal injection at the dosage of 5 mg/kg). The above various drugs are injected into the tumors. The tumor volume changes are recorded, and the formula for calculating the volume is Volume=(length×the square of width)/2."}, "[8]": {"test_system": "A549 metastatic lymph nodes", "experiment": "Lymph node metastasis inhibition experiment", "assay_type": "in vivo, nude mouse", "settings": "popliteal lymph nodes", "experimental": "as §2, with “Cells growing in a log phase are collected,” for “Milky white and thick ascites is extracted from the H22 tumor-bearing mice,”, “concentration of the cell suspension” for “concentration”, “to” for “to be”, “the” for “0.05 mL of”, “suspension” for “suspension (about 1.5×10^6 cells)”, “nude mouse at the inoculation volume of 0.05 mL (about 1.5×10^6 cells)” for “Kunming mouse,”"}, "[9]": {"test_system": "TPC-1 metastatic lymph nodes", "experiment": "Lymph node metastasis inhibition experiment", "assay_type": "in vivo, nude mouse", "settings": "popliteal lymph nodes", "experimental": "as §2, with “Cells growing in a log phase are collected,” for “Milky white and thick ascites is extracted from the H22 tumor-bearing mice,”, “concentration of the cell suspension” for “concentration”, “to” for “to be”, “the” for “0.05 mL of”, “suspension” for “suspension (about 1.5×10^6 cells)”, “nude mouse at the inoculation volume of 0.05 mL (about 1.5×10^6 cells)” for “Kunming mouse,”"}, "[10]": {"test_system": "SKOV3 metastatic lymph nodes", "experiment": "Lymph node metastasis inhibition experiment", "assay_type": "in vivo, nude mouse", "settings": "popliteal lymph nodes", "experimental": "as §2, with “Cells growing in a log phase are collected,” for “Milky white and thick ascites is extracted from the H22 tumor-bearing mice,”, “concentration of the cell suspension” for “concentration”, “to” for “to be”, “the” for “0.05 mL of”, “suspension” for “suspension (about 1.5×10^6 cells)”, “nude mouse at the inoculation volume of 0.05 mL (about 1.5×10^6 cells)” for “Kunming mouse,”"}, "[11]": {"test_system": "Hela metastatic lymph nodes", "experiment": "Lymph node metastasis inhibition experiment", "assay_type": "in vivo, nude mouse", "settings": "popliteal lymph nodes", "experimental": "as §2, with “Cells growing in a log phase are collected,” for “Milky white and thick ascites is extracted from the H22 tumor-bearing mice,”, “concentration of the cell suspension” for “concentration”, “to” for “to be”, “the” for “0.05 mL of”, “suspension” for “suspension (about 1.5×10^6 cells)”, “nude mouse at the inoculation volume of 0.05 mL (about 1.5×10^6 cells)” for “Kunming mouse,”"}, "[12]": {"test_system": "MDA-MB-231 metastatic lymph nodes", "experiment": "Lymph node metastasis inhibition experiment", "assay_type": "in vivo, nude mouse", "settings": "popliteal lymph nodes", "experimental": "as §2, with “Cells growing in a log phase are collected,” for “Milky white and thick ascites is extracted from the H22 tumor-bearing mice,”, “concentration of the cell suspension” for “concentration”, “to” for “to be”, “the” for “0.05 mL of”, “suspension” for “suspension (about 1.5×10^6 cells)”, “nude mouse at the inoculation volume of 0.05 mL (about 1.5×10^6 cells)” for “Kunming mouse,”"}, "[13]": {"test_system": "SGC-7901 metastatic lymph nodes", "experiment": "Lymph node metastasis inhibition experiment", "assay_type": "in vivo, nude mouse", "settings": "popliteal lymph nodes", "experimental": "as §2, with “Cells growing in a log phase are collected,” for “Milky white and thick ascites is extracted from the H22 tumor-bearing mice,”, “concentration of the cell suspension” for “concentration”, “to” for “to be”, “the” for “0.05 mL of”, “suspension” for “suspension (about 1.5×10^6 cells)”, “nude mouse at the inoculation volume of 0.05 mL (about 1.5×10^6 cells)” for “Kunming mouse,”"}, "[14]": {"test_system": "SMMC-7721 metastatic lymph nodes", "experiment": "Lymph node metastasis inhibition experiment", "assay_type": "in vivo, nude mouse", "settings": "popliteal lymph nodes", "experimental": "as §2, with “Cells growing in a log phase are collected,” for “Milky white and thick ascites is extracted from the H22 tumor-bearing mice,”, “concentration of the cell suspension” for “concentration”, “to” for “to be”, “the” for “0.05 mL of”, “suspension” for “suspension (about 1.5×10^6 cells)”, “nude mouse at the inoculation volume of 0.05 mL (about 1.5×10^6 cells)” for “Kunming mouse,”"}, "[15]": {"test_system": "HCT116 metastatic lymph nodes", "experiment": "Lymph node metastasis inhibition experiment", "assay_type": "in vivo, nude mouse", "settings": "popliteal lymph nodes", "experimental": "as §2, with “Cells growing in a log phase are collected,” for “Milky white and thick ascites is extracted from the H22 tumor-bearing mice,”, “concentration of the cell suspension” for “concentration”, “to” for “to be”, “the” for “0.05 mL of”, “suspension” for “suspension (about 1.5×10^6 cells)”, “nude mouse at the inoculation volume of 0.05 mL (about 1.5×10^6 cells)” for “Kunming mouse,”"}, "[16]": {"settings": "iron preparation alone 0.43 μg/mL"}, "[17]": {"settings": "iron preparation alone 1.71 μg/mL"}, "[18]": {"settings": "iron preparation alone 6.83 μg/mL"}, "[19]": {"settings": "iron preparation alone 13.65 μg/mL"}}, "data": [{"substance": "ferrous gluconate", "values": [{"measurement": "Cell Survival Rate", "setting": "[1]", "result": 97.43, "unit": "%"}, {"measurement": "Cell Survival Rate", "setting": "[2]; [16]", "result": 100, "unit": "%"}, {"measurement": "Cell Survival Rate", "setting": "[2]; [17]", "result": 100, "unit": "%"}, {"measurement": "Cell Survival Rate", "setting": "[2]; [18]", "result": 100, "unit": "%"}, {"measurement": "Cell Survival Rate", "setting": "[2]; [19]", "result": 96.14, "unit": "%"}, {"measurement": "Cell Survival Rate", "setting": "[3]; [16]", "result": 100, "unit": "%"}, {"measurement": "Cell Survival Rate", "setting": "[3]; [17]", "result": 96.12, "unit": "%"}, {"measurement": "Cell Survival Rate", "setting": "[3]; [18]", "result": 97.68, "unit": "%"}, {"measurement": "Cell Survival Rate", "setting": "[3]; [19]", "result": 100, "unit": "%"}, {"measurement": "Cell Survival Rate", "setting": "[4]; [16]", "result": 100, "unit": "%"}, {"measurement": "Cell Survival Rate", "setting": "[4]; [17]", "result": 100, "unit": "%"}, {"measurement": "Cell Survival Rate", "setting": "[4]; [18]", "result": 100, "unit": "%"}, {"measurement": "Cell Survival Rate", "setting": "[4]; [19]", "result": 98.34, "unit": "%"}, {"measurement": "Weight of Lymph Node", "setting": "[5]", "result": "57.19 ± 15.92", "unit": "mg"}, {"measurement": "inhibition effect on the metastatic lymph nodes", "setting": "[6]", "result": "do not have an inhibition effect"}, {"measurement": "inhibition effect on growth of 9 types of tumors", "setting": "[7]", "result": "do not have an inhibition effect"}, {"measurement": "Weight of Lymph Node", "setting": "[8]", "result": "47.58 ± 20.34", "unit": "mg"}, {"measurement": "Weight of Lymph Node", "setting": "[9]", "result": "40.16 ± 9.03", "unit": "mg"}, {"measurement": "Weight of Lymph Node", "setting": "[10]", "result": "33.57 ± 5.94", "unit": "mg"}, {"measurement": "Weight of Lymph Node", "setting": "[11]", "result": "32.14 ± 21.36", "unit": "mg"}, {"measurement": "Weight of Lymph Node", "setting": "[12]", "result": "40.19 ± 20.69", "unit": "mg"}, {"measurement": "Weight of Lymph Node", "setting": "[13]", "result": "52.14 ± 17.43", "unit": "mg"}, {"measurement": "Weight of Lymph Node", "setting": "[14]", "result": "58.97 ± 19.63", "unit": "mg"}, {"measurement": "Weight of Lymph Node", "setting": "[15]", "result": "55.18 ± 20.12", "unit": "mg"}]}]}
